Measured values from ChEMBL document CHEMBL5331046, “Disulfiram and dithiocarbamate analogues demonstrate promising antischistosomal effects” (Eur J Med Chem, 2022).
Calls of active or inactive are those of the source. The rule behind the calls is not given here.

How the values were obtained:
[1] = tested on: Schistosoma mansoni; assay: Antischistosomal activity against Schistosoma mansoni couples assessed as decrease in parasite motility at 50 uM measured upto 72 hrs by bright field microscopy; assay type: functional; design: scale not given: the % may be the effect or the level left
[2] = tested on: HepG2; assay: Cytotoxicity against human HepG2 cells assessed as reduction in cell vaibility at 100 uM by WST-1 assay; assay type: toxicity, cell-based; settings: hepg2, 100 µM
[3] = tested on: LS174T; assay: Cytotoxicity against human LS174T cells assessed as reduction in cell viability at 100 uM by WST-1 assay; assay type: toxicity, cell-based
[4] = tested on: Schistosoma mansoni; assay: Antischistosomal activity against Schistosoma mansoni couples assessed as gut dilations at 100 uM measured upto 72 hrs by bright field microscopy; assay type: functional, organism-based
[5] = tested on: Schistosoma mansoni; assay: Antischistosomal activity against Schistosoma mansoni couples assessed as decrease in parasite motility at 100 uM measured upto 72 hrs by bright field microscopy; assay type: functional; design: scale not given: the % may be the effect or the level left
[6] = tested on: Schistosoma mansoni; assay: Antischistosomal activity against Schistosoma mansoni couples assessed as gut dilations at 50 uM measured upto 72 hrs by bright field microscopy; assay type: functional, organism-based
[7] = tested on: Schistosoma mansoni; assay: Antischistosomal activity against Schistosoma mansoni couples assessed as detachment of worms from culture dish at 100 uM measured upto 72 hrs by bright field microscopy; assay type: functional, organism-based
[8] = tested on: Schistosoma mansoni; assay: Antischistosomal activity against Schistosoma mansoni couples assessed as reduction in pairing stability at 50 uM measured upto 72 hrs by bright field microscopy; assay type: functional, organism-based
[9] = tested on: Schistosoma mansoni; assay: Antischistosomal activity against Schistosoma mansoni couples assessed as tegument damage at 50 uM measured upto 72 hrs by bright field microscopy; assay type: functional, organism-based
[10] = tested on: Schistosoma mansoni; assay: Antischistosomal activity against Schistosoma mansoni couples assessed as intestinal dilations and tegument damage at 50 uM measured upto 72 hrs by bright field microscopy; assay type: functional, organism-based
[11] = tested on: Schistosoma mansoni; assay: Antischistosomal activity against Schistosoma mansoni couples assessed as inhibition of eggs production at 50 uM measured upto 72 hrs by bright field microscopy; assay type: functional, organism-based
[12] = tested on: Schistosoma mansoni; assay: Antischistosomal activity against Schistosoma mansoni couples assessed as decrease in parasite motility at 25 uM measured upto 72 hrs by bright field microscopy; assay type: functional
[13] = tested on: Schistosoma mansoni; assay: Antischistosomal activity against Schistosoma mansoni couples assessed as decrease in parasite motility at 15 uM measured upto 72 hrs by bright field microscopy; assay type: functional
[14] = tested on: Schistosoma mansoni; assay: Antischistosomal activity against Schistosoma mansoni couples at 100 uM measured upto 72 hrs by bright field microscopy; assay type: functional, organism-based
[15] = tested on: Schistosoma mansoni; assay: Antischistosomal activity against Schistosoma mansoni couples assessed as induction of weak phenotypes at 25 uM measured upto 72 hrs by bright field microscopy; assay type: functional, organism-based
[16] = tested on: Schistosoma mansoni; assay: Antischistosomal activity against Schistosoma mansoni couples assessed as inhibition of eggs production at 100 uM measured upto 72 hrs by bright field microscopy; assay type: functional
[17] = tested on: Schistosoma mansoni; assay: Antischistosomal activity against Schistosoma mansoni couples assessed as reduction in pairing stability at 100 uM measured upto 72 hrs by bright field microscopy; assay type: functional
[18] = tested on: Schistosoma mansoni; assay: Antischistosomal activity against Schistosoma mansoni couples at 25 uM measured upto 72 hrs by bright field microscopy; assay type: functional, organism-based
[19] = tested on: Schistosoma mansoni; assay: Antischistosomal activity against Schistosoma mansoni couples at >=50 uM measured upto 72 hrs by bright field microscopy; assay type: functional, organism-based
[20] = tested on: Schistosoma mansoni; assay: Antischistosomal activity against Schistosoma mansoni couples assessed as eggs deformation at 100 uM measured upto 72 hrs by bright field microscopy; assay type: functional
[21] = tested on: Schistosoma mansoni; assay: Antischistosomal activity against Schistosoma mansoni couples assessed as induction of phenotypes at 10 uM measured upto 72 hrs by bright field microscopy; assay type: functional, organism-based
[22] = tested on: Schistosoma mansoni; assay: Antischistosomal activity against Schistosoma mansoni couples assessed as decrease in parasite motility at 10 uM measured upto 72 hrs by bright field microscopy; assay type: functional, organism-based
[23] = tested on: Schistosoma mansoni; assay: Antischistosomal activity against Schistosoma mansoni couples assessed as decrease in parasite vitality at 15 uM measured upto 72 hrs by bright field microscopy; assay type: functional; design: scale not given: the % may be the effect or the level left
[24] = tested on: Schistosoma mansoni; assay: Antischistosomal activity against Schistosoma mansoni couples assessed as inhibition of eggs production at 15 uM measured upto 72 hrs by bright field microscopy; assay type: functional; design: scale not given: the % may be the effect or the level left
[25] = tested on: Schistosoma mansoni; assay: Antischistosomal activity against Schistosoma mansoni couples assessed as decrease in pairing stability at 15 uM measured upto 72 hrs by bright field microscopy; assay type: functional; design: scale not given: the % may be the effect or the level left
[26] = tested on: Schistosoma mansoni; assay: Antischistosomal activity against Schistosoma mansoni couples assessed as tegument damage at 100 uM measured upto 72 hrs by bright field microscopy; assay type: functional, organism-based
[27] = tested on: Schistosoma mansoni; assay: Antischistosomal activity against Schistosoma mansoni couples at 10 uM measured upto 72 hrs by bright field microscopy; assay type: functional, organism-based
[28] = tested on: Schistosoma mansoni; assay: Antischistosomal activity against Schistosoma mansoni couples assessed as tegument damage upto 100 uM measured upto 72 hrs by bright field microscopy; assay type: functional, organism-based
[29] = tested on: HepG2; assay: Cytotoxicity against human HepG2 cells assessed as reduction in cell viability upto 100 uM by WST-1 assay; assay type: toxicity, cell-based; settings: hepg2, 100 µM
[30] = tested on: LS174T; assay: Cytotoxicity against human LS174T cells assessed as reduction in cell vaibility upto 100 uM by WST-1 assay; assay type: toxicity, cell-based
[31] = tested on: Schistosoma mansoni; assay: Antischistosomal activity against Schistosoma mansoni couples assessed as pairing instability at 50 uM measured upto 72 hrs by bright field microscopy; assay type: functional

S=C(SCc1ccccc1)N1CCSCC1
Activity [1]: ~45%
Activity [2]: Non-Toxic
Activity [3]: Non-Toxic
Activity [4]: Active
Activity [5]: 45%
Activity [6]: Active
Activity [7]: Active

CCN(CC)C(=S)SCc1ccc(C#N)cc1
Activity [8]: Active
Activity [9]: Active
Activity [10]: Active
Activity [11]: Active
Activity [6]: Active
Activity [12]: Active

CCN(CC)C(=S)SCCC1OCCCO1
Activity [1]: inactive

O=[N+]([O-])c1ccc(CSC(=S)N2CCN(S(=O)(=O)c3cccc4ccccc34)CC2)cc1
Activity [13]: inactive

S=C(SCc1ccccc1)N1CCCc2ccccc21
Activity [14]: inactive

S=C(SCc1ccccc1)N1CCc2ccccc2C1
Activity [14]: inactive

Cl.N[C@@H](Cc1ccc(O)cc1)C(=O)N1CCN(C(=S)SCc2ccc([N+](=O)[O-])cc2)CC1
Activity [15]: Active
Activity [12]: 30%

S=C(SCc1ccccc1)n1ccnc1
Activity [16]: Active
Activity [17]: Active

O=C(C1CC1)N1CCN(C(=S)SCc2ccc([N+](=O)[O-])cc2)CC1
Activity [18]: inactive

CCN(CC)C(=S)SCc1ccc(-c2ccccc2)cc1
Activity [16]: Active

CCN1CCN(C(=S)SCc2ccccc2)CC1
Activity [19]: Active

CCN(CC)C(=S)SCCCCCc1ccccc1
Activity [16]: Active
Activity [17]: inactive

CCN(CC)C(=S)SCc1ccc2ccccc2c1
Activity [1]: >50%
Activity [2]: Non-Toxic
Activity [8]: Active
Activity [3]: Non-Toxic
Activity [11]: Active

CCN(CC)C(=S)SCc1ccc(C(=O)O)cc1
Activity [14]: inactive

CCN(CC)C(=S)OCc1ccccc1
Activity [16]: 100%
Activity [17]: 50%

CCN(CC)C(=S)SCCN1CCOCC1
Activity [20]: Active
Activity [17]: inactive

CCN(CC)C(=S)SCCc1ccccc1
Activity [5]: inactive
Activity [16]: 100%
Activity [17]: 100%

S=C(SCc1ccccc1)N1CCCCC1
Activity [16]: Active
Activity [17]: Active

S=C(SCc1ccccc1)n1cnnc1
Activity [14]: inactive

CCC(CC)C(=O)SCc1ccccc1
Activity [14]: Active

CCCCS(=O)(=O)N1CCN(C(=S)SCc2ccc([N+](=O)[O-])cc2)CC1
Activity [21]: Active
Activity [22]: Active
Activity [23]: 90%
Activity [13]: 50%
Activity [24]: 40%
Activity [25]: 20%

CCN(CC)C(=S)S/C=C/c1ccccc1
Activity [26]: Active

CCCCCN(CCCCC)C(=S)SCc1ccccc1
Activity [14]: inactive

O=[N+]([O-])c1ccc(CSC(=S)N2CCN(CCO)CC2)cc1
Activity [27]: inactive
Activity [18]: Active
Activity [14]: Active

S=C(SCc1ccccc1)N1CCN(c2ncccn2)CC1
Activity [14]: Active

S=C(SCc1ccccc1)N1CCSC1
Activity [7]: Active

CCN(CC)C(=S)SCCC1SCCCS1
Activity [1]: Active
Activity [28]: Active
Activity [29]: Non-Toxic
Activity [5]: <40%
Activity [30]: Non-Toxic
Activity [31]: 0%

O=C(c1ccco1)N1CCN(C(=S)SCc2ccc([N+](=O)[O-])cc2)CC1
Activity [18]: inactive

S=C(SCc1ccccc1)N1CCN(/C=C/c2ccccc2)CC1
Activity [14]: inactive

CCN(CC)C(=S)SC [METHYLDIETHYL CARBAMODITHIOATE]
Activity [2]: Non-Toxic
Activity [3]: Non-Toxic
Activity [14]: inactive

Cc1ccc(CN2CCN(C(=S)SCc3ccccc3)CC2)cc1
Activity [14]: Active
